Results on five compounds are retold here after patent US12122799B2, “Antibiotics for veterinary staphylococcal infections” (THE GEORGE WASHINGTON UNIVERSITY, A CONGRESSIONALLY …, priority 2018, dated 2024).

Read-outs that look alike come from different tables or passages of the source.

For test [1], the system named is S. chromogenes. Put plainly: Growth inhibition of Staphylococcus species assay. The format is cell-based. To be noted: read-out: Bacterial IC50 (Mean ± SD) S.c.
For test [2], the system named is S. pseudintermedius. The test is described as follows: Growth inhibition of Staphylococcus species assay. The format is cell-based. The conditions noted are these: read-out: Bacterial IC50 (Mean ± SD) S.p.
Test [3] has as its target recombinant DXR enzyme. Put plainly: DXR enzyme activity assay. The conditions noted are these: recombinant S. chromogenes DXR, n=3; read-out: S. chromogenes IC50 (mean ± SD). The format is biochemical.
The next test has as its system S. schleiferi. The test is described as follows: Growth inhibition of Staphylococcus species assay. In kind it is cell-based. To be noted: read-out: Bacterial IC50 (Mean ± SD) S.s.
Test [4] has as its target recombinant DXR enzyme. Put plainly: DXR enzyme activity assay. In kind it is biochemical. The conditions noted are these: read-out: S. schleiferi IC50 (mean ± SD).
In the next test the test system is S. aureus. The format is cell-based. The conditions noted are these: read-out: Bacterial IC50 (Mean ± SD) S.a.
Test [5] deals with S. chromogenes. In kind it is cell-based.
For test [6], the system named is S. pseudintermedius. The format is cell-based.
A further test concerns P. falciparum. The conditions noted are these: read-out: inhibition of P. falciparum growth IC50; cited from earlier work.
The next test has as its system S. schleferi. The format is cell-based, S. schleiferi.
The mark [7] stands for this setting: S. schleiferi growth, LB media, 20 h, OD600.

For the compound `COCOCOCOP(=O)(/C=C/CN(O)C=O)OCOCOCOC` [JXW-573], the IC50 was 40 nM in the test with S. chromogenes [1] (S. chromogenes growth, LB media, 20 h, OD600); 210 ± 40 nM with S. pseudintermedius [2] (S. pseudintermedius growth, LB media, 20 h, OD600); 15200 ± 2360 nM on recombinant DXR enzyme [3]; 30 nM with S. schleiferi (setting [7]); 12600 ± 1880 nM at recombinant DXR enzyme [4] (recombinant S. schleiferi DXR, n=3).
Consider `CC(=O)N(O)C/C=C/P(=O)(OCOC(=O)c1ccccc1)OCOC(=O)c1ccccc1` [KMH-102], for which the IC50 in the test on S. schleiferi (setting [7]) was 210 ± 50 nM.
As to `O=CN(O)CCCP(=O)(O)O` [fosmidomycin], the half-maximal inhibitory concentration (IC50) was more than 100000 nM with S. aureus; 310 ± 10 nM in the test on S. chromogenes [1]; 310 ± 40 nM in the test on S. pseudintermedius [2]; 780 ± 130 nM with S. schleiferi; 90 to 350 nM in the test with P. falciparum; 670 ± 60 nM on recombinant DXR enzyme [4]. Besides, the “bacteriostatic or bactericidal in S. chromogenes” value with S. chromogenes [5] is “bacteriostatic”. For the same compound, the “bacteriostatic or bactericidal in S. pseudintermedius” value in the test with S. pseudintermedius [6] was “bacteriostatic”. Also, the “bacteriostatic or bactericidal in S. schleferi” value in the test on S. schleferi is “bacteriostatic”.
For `CC(C)(C)C(=O)OCOP(=O)(/C=C/CN(O)C(=O)CCCc1ccccc1)OCOC(=O)C(C)(C)C` [JXW-168], the IC50 in the test on S. schleiferi (setting [7]) was 8700 nM.
As for `CC(C)(C)C(=O)OCOP(=O)(/C=C/CN(O)C(=O)c1ccccc1)OCOC(=O)C(C)(C)C` [JXW-189], the IC50 in the test with S. schleiferi (setting [7]) stood at 1300 nM.
